Laboratory results published in US4108857A, “Imidazolylmethyl methanobenzazocines” (Sterling Drug Inc., priority 1977, dated 1978).
Values after ≈ are worked out from the molar mass of the structure shown. Read-outs that look alike come from different tables or passages of the source.

Assays:
[1] = system: maximal electroshock seizures; assay: anti-maximal electroshock seizure test in mice; assay type: in vivo; details: for ED50: Mus musculus
Protocol: The preferred species of this invention, i.e. the compounds having in free base form Formula II, are useful as analgesic agents administered orally or parenterally to humans. […] In the anti-maximal electroshock seizure test, the compounds were administered intraperitoneally or perorally 30 or 90 minutes prior to the application of 50 milliamperes of alternating current through corneal electrodes. Shock duration was 0.3 second. The criterion for anticonvulsant activity was the absence of the tonic hind leg extensor component of the seizure. In the anti-maximal pentylenetetrazol seizure test, the compounds were given intraperitoneally 30 or 90 minutes prior to the rapid intravenous injection of 50 mg. per kg. of pentylenetetrazol. Failure to display tonic hind leg extensor seizures was again the criterion for drug action. Representative results, expressed as ED50 (mg./kg.), which were obtained with my new compounds in these two tests are as follows: […]

[2] = system: maximal pentylenetetrazol seizures; assay: anti-maximal pentylenetetrazol seizure test in mice; assay type: in vivo; details: Mus musculus
[3] = system: minimal pentylenetetrazol seizures; assay: anticonvulsant test against minimal pentylenetetrazol seizures; assay type: in vivo, mice; details: Mus musculus, oral, pentylenetetrazol 32.5 mg./kg. intravenously
Protocol: In anticonvulsant studies, against minimal pentylenetetrazol seizures, wherein the dose of pentylenetetrazol was only 32.5 mg./kg. (intravenously) and the ensuing convulsions were clonic, without a tonic hind leg extensor component, the oral ED50 values were: 30 minutes post-medication, 15 ± 4 mg./kg.; 90 minutes post-medication, 37 ± 6 mg./kg.

mice [4] = assay: inclined screen test in mice (skeletal muscle relaxation); assay type: in vivo; details: Mus musculus
mice [5] = assay: psychomotor activity studies in mice; assay type: in vivo
mice [6] = assay: diuresis in mice; assay type: in vivo; details: 12.5 mg./kg. and 25 mg./kg. i.p.
monkeys = assay: toxicology study in monkeys (oral, daily for 5 days); assay type: in vivo
Protocol: (§1) In a toxicology study, monkeys were medicated orally with 5 mg./kg. and 25 mg./kg. of the product of Example 1A each day for 5 days. […] There was considerable variability among the monkeys in the magnitude of the response. Symptoms lasted 2 to 5 hours. […] Blood SGO-T, alkaline phosphatase, and BUN were all normal.

acute toxicity, mouse = details: in vivo; for LD50 at 168 h: 7 day
Protocol: as §1

acute toxicity, rat = details: in vivo; for LD50 at 168 h: 7 day
Protocol: as §1

humans = assay: analgesic use in humans; assay type: in vivo
Protocol: For example, administered orally, the effective dosage of the racemic cis form of this compound in humans has been determined to be about 0.1 to 0.5 mg. of drug per kg. of body weight per day, at 5-25 mg. per dose; preferably about 0.2 to 0.4 mg./kg./day, for instance a total of […] at 20 mg./dose.

pH of solution = assay type: physicochemical; details: hydrochloride; 0.42 ml. of N/2 hydrochloric acid and 0.58 ml. of water
[7] = precipitation on gradual pH adjustment of the aqueous solution; assay type: physicochemical; details: 1 percent solution, N/10 sodium hydroxide solution, pH 7.0
[8] = precipitation on diluting ethyl alcohol solution with four volumes of water; assay type: physicochemical; details: 5 percent (w/v) solution in 95 percent ethyl alcohol
[9] = solubility in water or aqueous acid; details: dilute hydrochloric acid
[10] = 5 mg./kg. orally each day for 5 days
[11] = iv, I.V., read-out: LD50 ± s.e.

What does the source list for `C[C@H]1[C@H]2Cc3ccccc3[C@]1(C)CCN2CC1CC1` (relative stereo) [Example 1A, racemic 1,2,3,4,5,6-hexahydro-3-cyclopropylmethyl-cis-6,11-dimethyl-2,6-methano-3-benzazocine]?
Anti-Maximal Electroshock ED50 ([1]; IP, 90'): INACT.; ED50 ([1]; 0.5 h, IP, 30'): 11.2 ± 2 mg/kg; ED50 ([1]; 0.5 h, PO, 30'): 26.2 ± 7 mg/kg; ED50 ([1]; 1.5 h, PO, 90'): 35.5 ± 3 mg/kg; ED50 ([2]; 0.5 h, IP, 30'): 2.3 ± 7 mg/kg; ED50 ([2]; 0.5 h, PO, 30'): 3.3 ± 0.8 mg/kg; ED50 ([2]; 1.5 h, IP, 90'): 5.3 ± 10 mg/kg; ED50 ([2]; 1.5 h, PO, 90'): 6.2 ± 1 mg/kg; ED50 ([3]; 0.5 h, 30 minutes post-medication): 15 ± 4 mg/kg; ED50 ([3]; 1.5 h, 90 minutes post-medication): 37 ± 6 mg/kg; ED50 (mice [4]; 1 h, oral, sixty minutes after medication, read-out: dose at which 50 percent of the mice had fallen from a 60° inclined screen): 38.2 ± 11 mg/kg; ED50 (mice [4]; ip, intraperitoneal, read-out: ED50, 60° inclined screen): 17.2 mg/kg; toxic signs at high dose (mice [5]; 128 mg./kg. p.o.): Ataxia, loss of righting reflex, and death occurred; psychomotor activity pattern (mice [5]; 8-128 mg./kg. p.o.): stimulation at lower doses and depression at high doses; diuresis (mice [6]): significant diuresis; urine produced (mice [6]): dilute urine without electrolyte concentration; symptoms (monkeys; [10]): Some ataxia with a decrease in activity; tolerability (monkeys; [10]): well tolerated; symptoms (monkeys; 25 mg./kg. orally each day for 5 days): more marked decrease in spontaneous activity along with ataxia and salivation; BUN (monkeys; oral): normal; Blood SGO-T (monkeys; oral): normal; alkaline phosphatase (monkeys; oral): normal; body weight (monkeys; oral): Some weight loss occurred; LD50 at 24 h (acute toxicity, mouse; ip, I.P.): 65 ± 7 mg/kg; LD50 at 168 h (acute toxicity, mouse; ip, I.P.): 65 ± 7 mg/kg; LD50 at 24 h (acute toxicity, mouse; iv, I.V.): 20 ± 1 mg/kg; LD50 at 168 h (acute toxicity, mouse; iv, I.V.): 20 ± 1 mg/kg; LD50 at 24 h (acute toxicity, mouse; po, P.O.): 155 ± 17 mg/kg; LD50 at 168 h (acute toxicity, mouse; po, P.O.): 155 ± 17 mg/kg; LD50 at 24 h (acute toxicity, rat; [11]): 17 ± 1 mg/kg; LD50 at 168 h (acute toxicity, rat; [11]): 17 ± 1 mg/kg; LD50 at 24 h (acute toxicity, rat; po, P.O., read-out: ALD50): 200 mg/kg; LD50 at 168 h (acute toxicity, rat; po, P.O., read-out: ALD50): 200 mg/kg; psychotomimetic effects in humans (humans; analgesically effective doses): very few, if any, psychotomimetic effects; central nervous system effects in humans (humans; effective therapeutic analgesic doses): only minimal central nervous system effects; analgesic activity in humans (humans; humans): strong analgesic; pH of 1 percent solution in dilute hydrochloric acid (pH of solution): 1.5; precipitation on adjusting to pH 7.0 [7]: no precipitate formed; precipitation on dilution with four volumes of water [8]: a precipitate formed; solubility [9]: 10000 µg/mL (≈ 39.2 mM)
